Here are results for one compound from US20150320773A1, “TREATMENT OF INFLAMMATION” (Vascular Biogenics Ltd., priority 2011, published 2015).

The test system of test [1] is kinases, phosphatases, ion channels/ransporters. The test is described as follows: Selectivity: effect on activity of additional proteins.
For another test, the target named is HMG-CoA reductase (Homo sapiens, UniProt P04035). The settings on record: concentrations of up to 10 μM; data not shown.
Another test has as its system monocytes. As to the kind of experiment: Phagocytosis assay (whole blood), monocytes. Type of test: cell-based, human. Also noted: dose or concentration left out as unconfirmed. The conditions noted are these: VB-201 doses of 5 or 10. The protocol: Phagocytosis assays were conducted using pHrodo™ Phagocytosis Particle Labeling Kit (Invitrogen) according to the manufacturer protocol. […] Then, pHrodo dye-labeled E. coli bacteria were mixed with the treated blood samples, in 20:1 ratio of pHrodo™ particles to phagocytosing cells and incubated for additional 15 minutes. Each sample was analyzed both at 4° C. (no phagocytosis, negative control) and 37° C. Following incubation, red blood cells were removed by lysis and the samples were washed 3 times with wash buffer. For gating on specific subpopulations, cells were labeled with anti-CD14-FITC (monocytes and granulocytes marker, BD Biosciences) and anti-CD66b-PerCP/Cy5.5 (granulocytes marker, BioLegend) antibodies. pHrodo fluorescence intensity was analyzed by FACS.
To this end, a phagocytosis assay was performed on whole blood from healthy donors, and the capacity of leukocyte subsets to phagocytose PE-labeled E. Coli particles was tested in presence or absence of VB-201. As a negative control, we used blood without bacterial particles, while a positive control included blood and labeled-bacterial particles incubated at 37° C. Cells were then stained with CD14 and CD66b antibodies to differentiate between monocytes and granulocytes and were analyzed by FACS.

The subject of the next test is chemokine receptors. As to the kind of experiment: GPCR activation assay, agonist mode (calcium flux). Type of test: cell-based. The conditions noted are these: 12.5 μM VB-201; ChemiScreen stable cell lines. On the technique in general: Calcium flux is commonly read through the fluorescence of an indicator in the cells.
For a further test, the target named is Lp-PLA2 (Homo sapiens, UniProt Q13093). The conditions noted are these: concentrations of up to 40 μM; data not shown.
Lp-PLA2, sequence (Q13093 22-441): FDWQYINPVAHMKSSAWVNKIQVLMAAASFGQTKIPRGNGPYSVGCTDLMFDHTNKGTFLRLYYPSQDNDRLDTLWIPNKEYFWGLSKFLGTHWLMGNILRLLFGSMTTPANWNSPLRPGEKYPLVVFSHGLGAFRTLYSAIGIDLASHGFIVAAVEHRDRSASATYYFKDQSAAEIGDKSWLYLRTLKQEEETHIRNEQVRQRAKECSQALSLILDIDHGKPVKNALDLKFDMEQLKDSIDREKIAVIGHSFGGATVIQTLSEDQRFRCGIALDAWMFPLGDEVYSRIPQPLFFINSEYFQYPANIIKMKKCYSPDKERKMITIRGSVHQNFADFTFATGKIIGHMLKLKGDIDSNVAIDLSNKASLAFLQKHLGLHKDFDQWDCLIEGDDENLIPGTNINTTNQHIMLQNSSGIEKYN
The next test has as its system RAW 264.7 macrophages. The conditions noted are these: 0, 8.5 or 17 μM VB-201; streptavidin-APC. The text has this: Cells were washed and LPS binding was detected using streptavidin-APC.
CD14 is known to bind to lipopolysaccharide (LPS).

The target in another test is TLR9 (Mus musculus, UniProt Q9EQU3). The settings on record: mouse BMDCs; CpG; 1.7, 8.5 or 17 μM.
TLR9, sequence (Q9EQU3 26-1032): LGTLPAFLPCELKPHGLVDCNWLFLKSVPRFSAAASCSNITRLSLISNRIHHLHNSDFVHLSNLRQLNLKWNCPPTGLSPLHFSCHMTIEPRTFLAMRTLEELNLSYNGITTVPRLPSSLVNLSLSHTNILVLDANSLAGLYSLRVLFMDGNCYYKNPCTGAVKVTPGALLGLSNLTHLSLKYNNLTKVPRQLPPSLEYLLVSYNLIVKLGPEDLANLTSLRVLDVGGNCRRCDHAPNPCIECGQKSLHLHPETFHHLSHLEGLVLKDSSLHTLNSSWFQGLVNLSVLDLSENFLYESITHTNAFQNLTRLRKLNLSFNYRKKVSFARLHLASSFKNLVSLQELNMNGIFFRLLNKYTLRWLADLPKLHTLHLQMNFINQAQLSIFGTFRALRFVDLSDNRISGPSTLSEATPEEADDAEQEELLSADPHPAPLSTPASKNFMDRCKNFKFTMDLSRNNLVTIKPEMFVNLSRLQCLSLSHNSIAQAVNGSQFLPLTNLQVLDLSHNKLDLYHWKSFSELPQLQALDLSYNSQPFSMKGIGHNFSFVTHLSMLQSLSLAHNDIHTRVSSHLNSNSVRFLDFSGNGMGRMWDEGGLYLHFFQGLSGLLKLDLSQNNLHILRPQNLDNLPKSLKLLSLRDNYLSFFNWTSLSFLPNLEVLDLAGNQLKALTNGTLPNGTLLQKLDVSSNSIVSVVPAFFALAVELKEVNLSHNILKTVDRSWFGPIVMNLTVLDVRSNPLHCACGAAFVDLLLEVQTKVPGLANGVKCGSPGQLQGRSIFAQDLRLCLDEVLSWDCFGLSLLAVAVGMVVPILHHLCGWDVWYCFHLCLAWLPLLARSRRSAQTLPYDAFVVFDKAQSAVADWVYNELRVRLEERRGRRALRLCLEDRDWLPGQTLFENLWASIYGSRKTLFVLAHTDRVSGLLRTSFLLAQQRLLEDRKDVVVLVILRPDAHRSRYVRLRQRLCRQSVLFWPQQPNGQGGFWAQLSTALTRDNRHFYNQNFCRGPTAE
For the next test, the target named is TLR5 (Mus musculus, UniProt Q9JLF7). The settings on record: mouse BMDCs; flagellin; 1.7, 8.5 or 17 μM.
TLR5, sequence (Q9JLF7 27-859): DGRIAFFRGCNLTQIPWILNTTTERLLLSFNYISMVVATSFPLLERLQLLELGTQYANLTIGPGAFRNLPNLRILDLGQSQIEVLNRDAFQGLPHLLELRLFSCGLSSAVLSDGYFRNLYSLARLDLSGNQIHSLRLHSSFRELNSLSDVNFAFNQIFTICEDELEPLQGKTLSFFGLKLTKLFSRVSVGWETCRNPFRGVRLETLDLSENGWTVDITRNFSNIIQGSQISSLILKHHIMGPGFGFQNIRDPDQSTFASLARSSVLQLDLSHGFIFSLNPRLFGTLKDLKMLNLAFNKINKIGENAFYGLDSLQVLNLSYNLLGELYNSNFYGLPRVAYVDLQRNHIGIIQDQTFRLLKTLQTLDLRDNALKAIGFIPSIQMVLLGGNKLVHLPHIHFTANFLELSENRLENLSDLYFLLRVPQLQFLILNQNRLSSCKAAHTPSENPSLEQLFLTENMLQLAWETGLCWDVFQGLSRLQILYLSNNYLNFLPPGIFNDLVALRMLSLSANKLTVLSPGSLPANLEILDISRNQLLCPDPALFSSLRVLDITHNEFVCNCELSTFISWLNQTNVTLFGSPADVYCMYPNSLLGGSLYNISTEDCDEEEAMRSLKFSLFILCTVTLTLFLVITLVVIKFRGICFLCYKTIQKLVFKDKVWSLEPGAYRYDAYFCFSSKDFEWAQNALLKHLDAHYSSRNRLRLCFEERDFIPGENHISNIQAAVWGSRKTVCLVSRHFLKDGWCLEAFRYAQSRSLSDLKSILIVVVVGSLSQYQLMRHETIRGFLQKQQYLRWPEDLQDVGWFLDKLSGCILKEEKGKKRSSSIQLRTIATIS
The target of a further test is TLR2 (Homo sapiens, UniProt O60603). The settings on record: human monocytes; BO-VB201; anti-human TLR2 blocking antibody. The protocol: Human monocytes were incubated for 15 min with anti-human TLR2 blocking antibody. […] Streptavidin-APC (1:200) was used to detect binding.
TLR2, sequence (O60603 21-784): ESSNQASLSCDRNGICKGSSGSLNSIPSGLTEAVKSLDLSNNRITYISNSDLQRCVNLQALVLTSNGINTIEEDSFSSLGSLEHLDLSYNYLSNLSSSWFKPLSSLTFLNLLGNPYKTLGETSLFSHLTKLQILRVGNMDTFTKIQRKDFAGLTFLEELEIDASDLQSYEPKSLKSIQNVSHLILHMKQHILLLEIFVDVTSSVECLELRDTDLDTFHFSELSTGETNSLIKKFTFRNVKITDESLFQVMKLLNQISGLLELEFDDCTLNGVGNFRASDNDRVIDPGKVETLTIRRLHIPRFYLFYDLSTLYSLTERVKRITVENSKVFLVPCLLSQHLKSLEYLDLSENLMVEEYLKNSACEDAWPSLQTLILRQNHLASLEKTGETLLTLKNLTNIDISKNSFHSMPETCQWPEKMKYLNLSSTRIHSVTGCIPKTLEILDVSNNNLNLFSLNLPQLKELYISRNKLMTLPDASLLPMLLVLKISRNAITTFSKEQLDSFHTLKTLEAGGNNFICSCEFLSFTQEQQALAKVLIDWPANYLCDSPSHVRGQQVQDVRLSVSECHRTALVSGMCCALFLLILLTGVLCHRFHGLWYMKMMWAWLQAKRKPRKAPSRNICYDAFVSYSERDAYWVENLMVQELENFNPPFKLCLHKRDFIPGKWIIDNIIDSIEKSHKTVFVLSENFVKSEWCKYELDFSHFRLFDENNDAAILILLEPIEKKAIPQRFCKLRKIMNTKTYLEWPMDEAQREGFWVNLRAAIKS
The next test deals with patients. As to the kind of experiment: Vascular inflammation in patients (statin therapy). Type of test: in vivo, human. The conditions noted are these: in some instances. How it is done: In some examples according to any one of the embodiments of Methods 1a, 1b, 2, and 3 described herein, the vascular inflammation is measured using positron emission computed tomography (PET/CT) imaging quantifying 18-fluorodeoxyglucose (18-FDG) uptake as a target to background ratio (TBR), e.g., as described herein, or in Example 8 of WO2011/083465.

In test [2] the test system is MCF-7 human breast cancer cells. The test is described as follows: Wound-healing 'scratch' assay. Type of test: cell-based. The conditions noted are these: data not shown.
A further test relates to C57B6J WT mice. As to the kind of experiment: Thioglycollate-induced peritonitis model (monocyte migration in vivo). Also noted: species or system mouse. The conditions noted are these: oral. The protocol: After 5 days of administration, thioglycollate was injected to the peritoneal cavity of the mice to induce monocyte migration. Four days later, mice were sacrificed and migrating cells were collected from the peritoneum and counted by hemocytometer. Data are mean±SE, collected from 3-4 independent experiments. […] FIG. 26B is a FACS analysis. To characterize their identity, migrating cells were stained with the macrophage marker F4/80 and the neutrophils marker GR-1.
In this model, injection of thioglycollate to the peritoneal cavity induces a “sterile” inflammatory response recruiting peripheral monocytes to the peritoneum, where they differentiate into macrophages (Li, Y. M., et al., J. Immunol. Methods. 1997; 201:183-188). […] Upon sacrifice, the number and identity of the cells accumulating in the peritoneum was determined by FACS, and plasma samples were taken for quantification by Liquid Chromatography-Tandem Mass Spectrometry. Three days after thioglycollate injection 95% of the cells in the peritoneum were macrophages (F4/80 positive, GR-1 negative cells) (FIG. 26B).

Test [3] concerns phosphorylation of Akt, MEK1/2, ERK1/2 and p38 in human monocytes. The conditions noted are these: stimulation with MCP-1, MIP-1α or RANTES; shown in WO 2011/083469; cited from earlier work.

HMG-CoA reductase, sequence (P04035 whole entry, species assumed): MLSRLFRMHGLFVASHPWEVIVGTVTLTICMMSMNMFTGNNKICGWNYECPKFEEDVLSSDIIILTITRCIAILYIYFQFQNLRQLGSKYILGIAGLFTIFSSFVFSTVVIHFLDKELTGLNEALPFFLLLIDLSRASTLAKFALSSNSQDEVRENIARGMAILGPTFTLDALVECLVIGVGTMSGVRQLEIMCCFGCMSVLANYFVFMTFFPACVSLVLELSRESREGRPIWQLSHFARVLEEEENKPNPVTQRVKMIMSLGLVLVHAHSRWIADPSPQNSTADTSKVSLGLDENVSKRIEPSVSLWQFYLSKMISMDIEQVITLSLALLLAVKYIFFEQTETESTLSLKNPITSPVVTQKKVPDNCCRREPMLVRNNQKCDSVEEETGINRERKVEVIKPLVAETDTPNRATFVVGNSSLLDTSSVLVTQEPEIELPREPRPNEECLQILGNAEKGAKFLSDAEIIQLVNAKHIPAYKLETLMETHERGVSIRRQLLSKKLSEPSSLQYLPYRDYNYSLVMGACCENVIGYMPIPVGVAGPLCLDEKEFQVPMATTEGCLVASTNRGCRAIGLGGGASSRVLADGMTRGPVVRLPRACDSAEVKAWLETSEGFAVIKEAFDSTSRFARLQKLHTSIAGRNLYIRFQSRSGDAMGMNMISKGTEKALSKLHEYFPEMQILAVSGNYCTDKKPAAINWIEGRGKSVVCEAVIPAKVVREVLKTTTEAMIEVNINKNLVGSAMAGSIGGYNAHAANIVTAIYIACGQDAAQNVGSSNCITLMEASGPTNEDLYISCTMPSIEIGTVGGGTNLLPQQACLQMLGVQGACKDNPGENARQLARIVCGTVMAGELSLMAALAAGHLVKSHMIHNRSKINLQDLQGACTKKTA
Method for chemokine receptors: Analyses were performed by Millipore GPCR Profiler Service, by measuring intracellular calcium signal in real time using FLIPR^TETRA device. […] Antagonist percentage inhibition was referenced to EC80 control wells for each tested GPCR.

For `CCCCCCCCCCCCCCCCOC[C@H](COP(=O)([O-])OCC[N+](C)(C)C)OCCCCC(=O)O` [VB-201, (R)-1-hexadecyl-2-(4′-carboxyl)butyl-sn-glycero-3-phosphocholine], the “inhibition of kinases, phosphatases, ion channels/ransporters” value in [1] is on record as “No inhibition”. Besides, the “inhibition of HMG-CoA reductase” value against HMG-CoA reductase is on record as “No inhibition”. Also, the monocyte phagocytosis capacity entry in the test with monocytes is “did not have any significant effect”. Besides, the “activation relative to positive controls (agonist, Ca++ flux)” value in the test with chemokine receptors was “less than 5%”. Besides, the “inhibition of Lp-PLA2” value on Lp-PLA2 is reported as “No inhibition”. Also, the “binding of biotinylated LPS to macrophages” value in the test on RAW 264.7 macrophages was “inhibited binding of biotinylated LPS to macrophages in a dose dependent manner”. Besides, the “p38 phosphorylation following activation of TLR9” value at TLR9 is recorded as “no apparent effect”. Moreover, the “p38 phosphorylation following activation of TLR5” value on TLR5 was “no apparent effect”. Besides, the “binding to cell surface expressed TLR2” value on TLR2 is “Binds Cell Surface Expressed TLR2”. In addition, the “effect on vascular inflammation in patients undergoing statin therapy versus patients not being treated with statins” value in the test with patients was “slightly better”. The “cell migration in wound-healing scratch assay” value in [2] was “no effect on cell migration”. For the same compound, the “inhibition of peritoneal macrophage accumulation” value in the test with C57B6J WT mice (0.04 mg/kg/day) is recorded as “no inhibitory effect”; with C57B6J WT mice (0.4 mg/kg), roughly 25%. Also, the “reduction in the number of peritoneal macrophages relative to PBS-treated animals” value in the test with C57B6J WT mice (4 mg/kg) is recorded as greater than 60%. For the same compound, the “ERK1/2 phosphorylation and MEK1/2 phosphorylation” value in test [3] is “inhibition by VB-201 of ERK1/2 phosphorylation and MEK1/2 phosphorylation”.
